Reference: patent publication US12497408B2, “Tetracyclic compounds and methods for the treatment of Zika virus infection” (priority 2021, dated 2025)

What follows are compounds tested on ZIKV (assay: ZIKV reporter virus-based antiviral screening on Huh7 cells). Conditions: Zika virus, Huh-7, 48 h, Huh7 cells infected with recombinant luciferase reporter ZIKV (MOI about 0.1), luciferase signal.
Type: cell-based, Zika virus
Outline: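 Huh7 cells in 2% FBS assay medium infected at MOI about 0.1 with Renilla or Nano luciferase ZIKV premixed with nine-point compound dilutions, 48 hrs at 37° C. Luciferase signal normalized to DMSO controls as 100%; viability optionally by CellTiter-Glo with Rlu virus.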

Q: With `COC(=O)N[C@H](C(=O)N1[C@H](c2nc(Cl)c(-c3cc4c5c(c3)OCc3cc(-c6[nH]c([C@@H]7C[C@@H]8CCCC[C@@H]8N7C(=O)[C@@H](NC(=O)OC)C(C)C)nc6Cl)cc(c3-5)OC4)[nH]2)C[C@@H]2CCCC[C@@H]21)C(C)C` [Compound 37, dimethyl ((2S,2′S)-((2S,2′S,3aS,3a′S,7aS,7a′S)-((5,10-dihydrochromeno[5,4,3-cde]chromene-2,7-diyl)bis(4-chloro-1H-imidazole-5,2-diyl))bis(octahydro-1H-indole-2,1-diyl))bis(3-methyl-1-oxobutane-1,2-diyl))dicarbamate] as the compound, how does the EC50 read?
A: 5.7 nM

Q: Which EC50 does the source give for `COC(=O)N[C@H](C(=O)N1[C@H](c2nc(Cl)c(-c3cc4c5c(c3)OCc3cc(-c6[nH]c([C@@H]7C[C@@H]8CCCC[C@@H]8N7C(=O)[C@@H](NC(=O)OC)C(C)(C)C(F)(F)F)nc6Cl)cc(c3-5)OC4)[nH]2)C[C@@H]2CCCC[C@@H]21)C(C)(C)C(F)(F)F` [Compound 38, dimethyl ((2S,2′S)-((2S,2′S,3aS,3a′S,7aS,7a′S)-((5,10-dihydrochromeno[5,4,3-cde]chromene-2,7-diyl)bis(4-chloro-1H-imidazole-5,2-diyl))bis(octahydro-1H-indole-2,1-diyl))bis(4,4,4-trifluoro-3,3-dimethyl-1-oxobutane-1,2-diyl))dicarbamate] here?
A: 25.6 nM

Q: Which EC50 does the source give for `CC[C@H](C)[C@H](NC(=O)OC)C(=O)N1[C@H](c2nc(Cl)c(-c3cc4c5c(c3)OCc3cc(-c6[nH]c([C@@H]7C[C@@H]8CCCC[C@@H]8N7C(=O)[C@@H](NC(=O)OC)[C@@H](C)CC)nc6Cl)cc(c3-5)OC4)[nH]2)C[C@@H]2CCCC[C@@H]21` [Compound 39, dimethyl ((2S,2′S,3S,3′S)-((2S,2′S,3aS,3a′S,7aS,7a′S)-((5,10-dihydrochromeno[5,4,3-cde]chromene-2,7-diyl)bis(4-chloro-1H-imidazole-5,2-diyl))bis(octahydro-1H-indole-2,1-diyl))bis(3-methyl-1-oxopentane-1,2-diyl))dicarbamate] here?
A: 10.9 nM

Q: For `COC(=O)N[C@H](C(=O)N1[C@@H](C)CC[C@H]1c1nc(C(C)C)c(-c2cc3c4c(c2)OCc2cc(-c5[nH]c([C@@H]6CC[C@H](C)N6C(=O)[C@@H](NC(=O)OC)C(C)C)nc5C(C)C)cc(c2-4)OC3)[nH]1)C(C)C` [Compound 40, dimethyl ((2S,2′S)-((2S,2′S,5S,5′S)-((5,10-dihydrochromeno[5,4,3-cde]chromene-2,7-diyl)bis(4-isopropyl-1H-imidazole-5,2-diyl))bis(2-methylpyrrolidine-5,1-diyl))bis(3-methyl-1-oxobutane-1,2-diyl))dicarbamate], which EC50 is on record?
A: 5.6 nM

Q: For `CC[C@H](C)[C@H](NC(=O)OC)C(=O)N1[C@@H](C)CC[C@H]1c1nc(C(C)C)c(-c2cc3c4c(c2)OCc2cc(-c5[nH]c([C@@H]6CC[C@H](C)N6C(=O)[C@@H](NC(=O)OC)[C@@H](C)CC)nc5C(C)C)cc(c2-4)OC3)[nH]1` [Compound 41, dimethyl ((2S,2′S,3S,3′S)-((2S,2′S,5S,5′S)-((5,10-dihydrochromeno[5,4,3-cde]chromene-2,7-diyl)bis(4-isopropyl-1H-imidazole-5,2-diyl))bis(2-methylpyrrolidine-5,1-diyl))bis(3-methyl-1-oxopentane-1,2-diyl))dicarbamate], which EC50 is on record?
A: 2.8 nM

Q: How did the EC50 turn out when `COC(=O)N[C@H](C(=O)N1[C@@H](C)CC[C@H]1c1nc(C(C)C)c(-c2cc3c4c(c2)OCc2cc(-c5[nH]c([C@@H]6CC[C@H](C)N6C(=O)[C@@H](NC(=O)OC)C(C)(C)C(F)(F)F)nc5C(C)C)cc(c2-4)OC3)[nH]1)C(C)(C)C(F)(F)F` [Compound 42, dimethyl ((2S,2′S)-((2S,2′S,5S,5′S)-((5,10-dihydrochromeno[5,4,3-cde]chromene-2,7-diyl)bis(4-isopropyl-1H-imidazole-5,2-diyl))bis(2-methylpyrrolidine-5,1-diyl))bis(4,4,4-trifluoro-3,3-dimethyl-1-oxobutane-1,2-diyl))dicarbamate] was run?
A: 1.9 nM

Q: How did the EC50 turn out when `COC(=O)N[C@H](C(=O)N1[C@@H](C)CC[C@H]1c1nc(Cl)c(-c2cc3c4c(c2)OCc2cc(-c5[nH]c([C@@H]6CC[C@H](C)N6C(=O)[C@@H](NC(=O)OC)C(C)C)nc5C(C)C)cc(c2-4)OC3)[nH]1)C(C)C` [Compound 43, methyl ((S)-1-((2S,5S)-2-(5-(7-(4-chloro-2-((2S,5S)-1-((methoxycarbonyl)-L-valyl)-5-methylpyrrolidin-2-yl)-1H-imidazol-5-yl)-5,10-dihydrochromeno[5,4,3-cde]chromen-2-yl)-4-isopropyl-1H-imidazol-2-yl)-5-methylpyrrolidin-1-yl)-3-methyl-1-oxobutan-2-yl)carbamate] was run?
A: 1.6 nM

Q: How did the EC50 turn out when `CC[C@H](C)[C@H](NC(=O)OC)C(=O)N1[C@@H](C)CC[C@H]1c1nc(Cl)c(-c2cc3c4c(c2)OCc2cc(-c5[nH]c([C@@H]6CC[C@H](C)N6C(=O)[C@@H](NC(=O)OC)[C@@H](C)CC)nc5C(C)C)cc(c2-4)OC3)[nH]1` [Compound 44, methyl ((2S,3S)-1-((2S,5S)-2-(5-(7-(4-chloro-2-((2S,5S)-1-((methoxycarbonyl)-L-isoleucyl)-5-methylpyrrolidin-2-yl)-1H-imidazol-5-yl)-5,10-dihydrochromeno[5,4,3-cde]chromen-2-yl)-4-isopropyl-1H-imidazol-2-yl)-5-methylpyrrolidin-1-yl)-3-methyl-1-oxopentan-2-yl)carbamate] was run?
A: 1.9 nM

Q: Which EC50 does the source give for `COC[C@H]1C[C@@H](c2nc(Cl)c(-c3cc4c5c(c3)OCc3cc(-c6[nH]c([C@@H]7C[C@H](COC)CN7C(=O)[C@@H](NC(=O)OC)C(C)C)nc6Cl)cc(c3-5)OC4)[nH]2)N(C(=O)[C@@H](NC(=O)OC)C(C)C)C1` [Compound 45, dimethyl ((2S,2′S)-((3S,3′S,5S,5′S)-((5,10-dihydrochromeno[5,4,3-cde]chromene-2,7-diyl)bis(4-chloro-1H-imidazole-5,2-diyl))bis(3-(methoxymethyl)pyrrolidine-5,1-diyl))bis(3-methyl-1-oxobutane-1,2-diyl))dicarbamate] here?
A: 19.3 nM

Q: How did the EC50 turn out when `COC(=O)N[C@H](C(=O)N1[C@@H]2C[C@@H]2C[C@H]1c1nc(Cl)c(-c2cc3c4c(c2)OCc2cc(-c5[nH]c([C@@H]6C[C@H]7C[C@H]7N6C(=O)[C@@H](NC(=O)OC)C(C)C)nc5Cl)cc(c2-4)OC3)[nH]1)C(C)C` [Compound 46, dimethyl ((2S,2′S)-((1R,1′R,3S,3′S,5R,5′R)-((5,10-dihydrochromeno[5,4,3-cde]chromene-2,7-diyl)bis(4-chloro-1H-imidazole-5,2-diyl))bis(2-azabicyclo[3.1.0]hexane-3,2-diyl))bis(3-methyl-1-oxobutane-1,2-diyl))dicarbamate] was run?
A: 5 nM

Q: Which EC50 does the source give for `COC(=O)N[C@H](C(=O)N1C[C@@H](C)C[C@H]1c1nc(Cl)c(-c2cc3c4c(c2)OCc2cc(-c5[nH]c([C@@H]6C[C@H](C)CN6C(=O)[C@@H](NC(=O)OC)[C@@H](C)OC)nc5Cl)cc(c2-4)OC3)[nH]1)[C@@H](C)OC` [Compound 47, dimethyl ((2S,2′S,3R,3′R)-((3S,3′S,5S,5′S)-((5,10-dihydrochromeno[5,4,3-cde]chromene-2,7-diyl)bis(4-chloro-1H-imidazole-5,2-diyl))bis(3-methylpyrrolidine-5,1-diyl))bis(3-methoxy-1-oxobutane-1,2-diyl))dicarbamate] here?
A: 16.9 nM
